Results reported in PubChem BioAssay (NCI).
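Tested at 5 concentrations; 48 h exposure; 96-well plates; endpoints linearly interpolated, else capped at highest concentration. Here, GI50 denotes the concentration required for 50% inhibition of growth. TGI: concentration producing complete growth inhibition.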

What was measured:
Assay in all cases: DTP human tumour cell line panel, 48 h
[1] = test system: NCI-H23 lung
[2] = test system: K-562 leukemia
[3] = test system: HOP-62 NSCLC
[4] = test system: NCI-H460 lung
[5] = test system: HT29 colon
[6] = test system: EKVX NSCLC
[7] = test system: SK-MEL-2 melanoma
[8] = test system: TK-10 renal
[9] = test system: MDA-MB-435
[10] = test system: MCF7 breast

Structure (SMILES) | TGI [1] [µM] | TGI [2] [µM] | TGI [3] [µM] | TGI [4] [µM] | TGI [5] [µM] | TGI [6] [µM] | TGI [7] [µM] | TGI [8] [µM] | GI50 [1] [µM] | GI50 [2] [µM] | GI50 [3] [µM] | GI50 [4] [µM] | GI50 [5] [µM] | GI50 [6] [µM] | GI50 [7] [µM] | GI50 [8] [µM] | GI50 [9] [µM] | TGI [9] [µM] | GI50 [10] [µM] | TGI [10] [µM]
CC1=C(C(=O)Nc2ccccc2C)C(c2ccc(C3C(C(=O)Nc4ccccc4C)=CNC=C3C(=O)Nc3ccccc3C)cc2)C(C(=O)Nc2ccccc2C)=C(C)N1 | 36.5 | > 73.4 | 48.7 | 48 | 29.3 | 40.7 | 31.6 | > 100 | – | – | – | – | – | – | – | – | – | – | – | –
CC1CCC23COC(=O)C2C(O)CCC3C1(C)CC(O)c1ccoc1 (centres undefined) | > 100 | > 100 | > 100 | > 100 | > 100 | > 100 | > 100 | > 100 | – | – | – | – | – | – | – | – | – | – | – | –
O=C1C(N2C(=O)c3ccccc3C2=O)CN1C(COCc1ccccc1)c1ccc(OCc2ccccc2)cc1 (centres undefined) | > 100 | > 100 | > 100 | > 100 | > 100 | > 100 | – | > 100 | – | – | – | – | – | – | – | – | – | – | – | –
COc1ccc(Nc2ncccc2C(=O)NCc2cn(Cc3cccc(Oc4ccccc4)c3)nn2)cc1 | > 100 | > 100 | > 100 | > 100 | 15.4 | > 100 | > 100 | > 100 | 3.45 | 3.48 | 5.07 | 3.52 | 3.66 | 4.16 | 3.66 | 4.59 | 1.71 | 4.34 | – | –
CN(C)CCC1(C2=CCCC2)CC/C(=C\c2ccccc2)C1=O (centres undefined) | 46.9 | 46.5 | 30 | 31.3 | 34.4 | 25.7 | 31 | 29 | – | – | – | – | – | – | – | – | – | – | – | –
O=c1[nH]c(/C=C(\O)c2ccncc2)nc2ccccc12 | > 100 | > 100 | > 100 | > 100 | > 100 | > 100 | > 100 | > 100 | – | – | – | – | – | – | – | – | – | – | – | –
COC(=O)C(Cc1nc2ccccc2[nH]c1=O)C(=O)C(=O)Nc1ccc(OC)cc1[N+](=O)[O-] (centres undefined) | > 100 | > 100 | > 100 | > 100 | > 100 | > 100 | > 100 | > 100 | – | – | – | – | – | – | – | – | – | – | – | –
CSc1nc2c(c(=O)[nH]1)C(c1ccc(Cl)cc1)C1=C(N2)/C(=C/c2ccc(Cl)cc2)CNC1 (centres undefined) | 5.84 | 15.1 | 5.11 | 7.61 | 5.09 | – | 9.53 | – | 2.48 | 3.09 | 2.38 | 2.75 | 2.05 | – | 2.76 | – | 1.79 | 3.69 | 1.94 | 5.85
O=c1/c(=C/c2ccc3c(c2)OCO3)sc2nnc(-c3ccco3)n12 | > 100 | > 100 | > 100 | > 100 | – | > 100 | > 100 | > 100 | – | – | – | – | – | – | – | – | – | – | – | –
CCCCCCCCCC(CCCC(O)CC(=O)O)OC1OC(COC2OC(C)C(O)C(O)C2O)C(O)C(O)C1OC1OC(CO)C(O)C(O)C1OC1OC(C)C(O)C(O)C1O (centres undefined) | > 40 | > 40 | > 40 | > 40 | > 40 | > 40 | – | > 40 | > 40 | > 40 | > 40 | > 40 | > 40 | > 40 | – | > 40 | > 40 | > 40 | > 40 | > 40
CN(C)/C=N/c1nc2ncn(CCOC(=O)c3ccccc3)c2c(=O)[nH]1 | – | > 100 | > 100 | > 100 | > 100 | > 100 | > 100 | > 100 | – | – | – | – | – | – | – | – | – | – | – | –
CCSc1nc2n(c(=S)n1)CCN2C | – | 79.5 | 68.8 | 39.7 | 37.2 | 69.6 | 41.7 | – | – | – | – | – | – | – | – | – | – | – | – | –
Cc1nn(-c2ccc(Br)cc2)c(C)c1CC(=O)c1cc(O)ccc1O | 35.7 | 29.5 | – | 19.3 | 36.7 | > 50 | > 50 | > 50 | 10.9 | 3.02 | – | 8.34 | 13.2 | 21.3 | 23 | 15.5 | 6.92 | > 50 | 6.27 | 18.8
CC(Oc1ccc2cc(C(=O)c3ccccc3)c(=O)oc2c1)C(=O)O (centres undefined) | > 100 | > 100 | > 100 | > 100 | > 100 | > 100 | – | > 100 | – | – | – | – | – | – | – | – | – | – | – | –
O=C1OC2C(O)C(=O)OC2C1O (centres undefined) | > 100 | > 100 | > 100 | > 100 | > 100 | > 100 | > 100 | – | – | – | – | – | – | – | – | – | – | > 100 | – | > 100
Cc1cc2c(cc1C)[n+](=O)c(C(=O)/C=C/c1ccccc1Cl)c(C)n2[O-] | 46.7 | > 100 | 58.9 | 63.7 | > 100 | > 100 | 68.7 | 57.3 | – | – | – | – | – | – | – | – | – | – | – | –
COc1ccc(C(=O)O)c(Cc2ccc3ccccc3c2)c1 | > 100 | > 100 | > 100 | > 100 | > 100 | > 100 | > 100 | > 100 | – | – | – | – | – | – | – | – | – | – | – | –
Oc1cc2ccccc2cc1-c1n[nH]c(=S)n1-c1ccc(Cl)cc1 | 60.3 | > 100 | – | – | 76.3 | > 100 | 39.3 | 63 | 20 | > 100 | – | – | 24.6 | 28.7 | 12.5 | 18.9 | 4.66 | > 100 | – | –
O=C([O-])c1ccccc1Nc1ccccc1[O-].[Ni+3].[OH3+].[OH3+].[OH3+] | > 100 | > 100 | > 100 | > 100 | > 100 | > 100 | > 100 | – | > 100 | > 100 | > 100 | > 100 | > 100 | > 100 | > 100 | – | – | – | – | –
CC1(C)OC(=O)C(=C2CC(c3ccccc3)c3ccccc32)C(=O)O1 (centres undefined) | > 100 | > 100 | > 100 | > 100 | > 100 | > 100 | – | > 100 | – | – | – | – | – | – | – | – | – | – | – | –
